# Activity calls are given as the source filed them. Unless noted, no cut-off for these calls is given here.
# Experiments:
# [1] = Luminescence-based cell-based high throughput dose response assay to identify activators of the DAF-12 from the parasite S. stercoralis (ssDAF-12).; assay type: functional
# [2] = target: T1, Oxysterols receptor LXR-beta (Homo sapiens, UniProt P55055); assay: LXR agonists, Gal4 luciferase reporter, dose response, counter-screen for ssDAF-12 agonist project, cell-based, luminescence, HEK293, S. stercoralis campaign (AID 720737); assay type: functional; conditions: read-out: IC50 (the source's name)
# T1 sequence (P55055 whole entry): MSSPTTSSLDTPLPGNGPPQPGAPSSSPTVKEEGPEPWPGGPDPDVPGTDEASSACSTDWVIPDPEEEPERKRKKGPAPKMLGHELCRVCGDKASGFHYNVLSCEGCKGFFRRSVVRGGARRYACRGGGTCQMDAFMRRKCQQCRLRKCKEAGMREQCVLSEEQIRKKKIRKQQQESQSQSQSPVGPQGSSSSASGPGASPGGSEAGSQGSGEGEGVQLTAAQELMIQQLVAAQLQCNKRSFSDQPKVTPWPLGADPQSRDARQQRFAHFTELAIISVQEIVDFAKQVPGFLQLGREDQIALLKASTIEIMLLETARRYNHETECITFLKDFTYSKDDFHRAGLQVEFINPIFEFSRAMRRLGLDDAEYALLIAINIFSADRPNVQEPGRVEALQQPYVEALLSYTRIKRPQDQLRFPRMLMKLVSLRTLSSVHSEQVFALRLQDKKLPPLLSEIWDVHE
# [3] = HT-29 colorectal cell cytotoxicity over time, dose response, HRas target identification project, CellTiter-Glo, multiple timepoints, dry powder (AID 720598); assay type: functional, cell-based
# [4] = SR lymphoma cell viability over time, late-stage follow-up, mechanism study for HRAS target identification, CellTiter-Glo ATP luminescence, 8-48 h, dry powder (AID 720608); assay type: functional, cell-based
# [5] = SNB-19 glioblastoma cell viability over time, late-stage follow-up, mechanism study for HRAS target identification, CellTiter-Glo ATP luminescence, 8-48 h, dry powder (AID 720611); assay type: functional, cell-based
# [6] = LOX IMVI melanoma cell viability loss, dose response, HRAS target identification, CellTiter-Glo ATP luminescence, 8/24/48 h, dry powder (AID 720602); assay type: functional, cell-based
# [7] = HeLa cell viability over time, late-stage follow-up, mechanism study for HRAS target identification, CellTiter-Glo ATP luminescence, 8-48 h, dry powder (AID 720609); assay type: functional, cell-based
# [8] = SNB-75 astrocytoma cell viability loss, late-stage follow-up, mechanism study for HRAS target identification, CellTiter-Glo ATP luminescence, several timepoints, dry powder (AID 720624); assay type: functional, cell-based
# [9] = HUVEC endothelial cell viability loss, dose response, cytotoxicity control for HRAS target identification, CellTiter-Glo ATP luminescence, 8/24/48 h, dry powder (AID 720604); assay type: functional, cell-based
# [10] = C2C12 myoblast ATP-based viability loss, dose response, cytotoxicity control for HRAS target identification, cell-based, CellTiter-Glo ATP luminescence, 8/24/48 h, dry powder (AID 720603); assay type: functional
# [11] = SNB-19 glioblastoma cell viability loss, dose response, HRAS target identification, Alamar Blue fluorescence, 8/24/48 h, dry powder (AID 720600); assay type: functional, cell-based
# [12] = U-251 glioblastoma cell viability loss, late-stage follow-up, mechanism study for HRAS target identification, CellTiter-Glo ATP luminescence, several timepoints, dry powder (AID 720616); assay type: functional, cell-based
# [13] = CCRF-CEM leukemia cell viability loss, dose response, HRAS target identification, CellTiter-Glo ATP luminescence, 8/24/48 h, dry powder (AID 720607); assay type: functional, cell-based
# Kallikrein-7 = Kallikrein-7 (Homo sapiens, UniProt P49862); assay: Fluorescence Intensity-based biochemical primary high throughput dose response assay to identify activators of kallikrein-7 (K7) zymogen.
# Sequence of Kallikrein-7 (P49862 whole entry): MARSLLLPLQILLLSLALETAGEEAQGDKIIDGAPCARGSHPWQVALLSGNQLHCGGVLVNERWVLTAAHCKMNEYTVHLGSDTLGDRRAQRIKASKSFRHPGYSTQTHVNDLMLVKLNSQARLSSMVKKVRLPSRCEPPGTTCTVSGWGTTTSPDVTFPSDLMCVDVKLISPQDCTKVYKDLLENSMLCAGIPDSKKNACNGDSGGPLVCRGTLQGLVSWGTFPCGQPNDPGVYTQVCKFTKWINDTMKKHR
# [14] = Artemis endonuclease inhibitor potency, dose response, biochemical, fluorescence intensity (AID 720701); assay type: functional;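 note: Artemis endonuclease enzyme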
# [15] = intracellular Trypanosoma cruzi inhibitors in host cells – cell-based, plate reader, cherry-pick samples, set 3, dose response (AID 651818); assay type: functional;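 note: compounds incubated with infected cells for about four days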
# [16] = cytotoxicity in HepG2 cells, dose response, cytotoxicity control, cell-based, cherry-picked samples (AID 1053183); assay type: functional
# [17] = cytotoxicity in HEK293 cells, dose response, cytotoxicity control, cell-based, cherry-picked samples (AID 1053185); assay type: functional
# [18] = cytotoxicity in A549 cells, dose response, cytotoxicity control, cell-based, cherry-picked samples (AID 1053184); assay type: functional
# BJ [19] = assay: cytotoxicity toward BJ-TERT fibroblasts, dose response, cell-based, RAS-independent, luminescence (AID 1933); assay type: functional; conditions: Homo sapiens
# [20] = target: T2, Heat shock factor protein 1 (Mus musculus, UniProt P38532); assay: inhibition of MG132-induced HSE-luciferase signal, confirmation, cell-based, NIH3T3, luminescence, dose retest (AID 2382); assay type: functional;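 note: NIH3T3 fibroblasts with HSF1-driven luciferase reporter stressed by proteasome inhibitor MG132; luminescence from HSF1-driven luciferase expression after 8 hours of MG132 stress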
# T2 sequence (P38532 whole entry): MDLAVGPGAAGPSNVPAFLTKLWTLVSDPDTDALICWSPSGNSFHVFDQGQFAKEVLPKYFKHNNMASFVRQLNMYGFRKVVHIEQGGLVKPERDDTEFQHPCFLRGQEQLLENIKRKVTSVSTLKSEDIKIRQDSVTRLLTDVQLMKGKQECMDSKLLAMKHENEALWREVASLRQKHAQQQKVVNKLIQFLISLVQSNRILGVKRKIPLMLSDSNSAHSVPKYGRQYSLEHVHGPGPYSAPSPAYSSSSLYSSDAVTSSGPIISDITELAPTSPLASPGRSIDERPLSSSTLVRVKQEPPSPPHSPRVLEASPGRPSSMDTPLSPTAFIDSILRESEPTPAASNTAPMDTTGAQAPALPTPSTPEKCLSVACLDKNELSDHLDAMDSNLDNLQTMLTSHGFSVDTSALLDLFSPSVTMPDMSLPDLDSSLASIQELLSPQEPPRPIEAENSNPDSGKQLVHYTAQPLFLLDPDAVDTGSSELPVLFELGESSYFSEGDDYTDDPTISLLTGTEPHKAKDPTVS
# BJ [21] = assay: cells; assay type: functional, cell-based; conditions: Homo sapiens
# BJ [22] = assay: cytotoxicity toward BJ-TERT-LT-ST fibroblasts, dose response, cell-based, RAS-independent, luminescence (AID 1935); assay type: functional; conditions: Homo sapiens;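 note: BJ fibroblasts immortalized with TERT plus LT and ST oncogenes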
# [23] = cytotoxicity toward DRD oncogenic fibroblasts, dose response, cell-based, non-viral oncogenic, luminescence (AID 1934); assay type: functional; conditions: Homo sapiens
# [24] = cytotoxicity in HEK-293T cells, dose response, cytotoxicity control for TCR NF-kB inhibitor project, luminescence, T-cell screen hits (AID 489026); assay type: functional, cell-based;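 note: cells exposed to compound about 14 hours before the viability readout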
# BJ [25] = assay: cytotoxicity toward Ras-transformed BJeLR fibroblasts, dose response, cell-based, alamar blue fluorescence, cherrypicked samples (AID 2631); assay type: functional; conditions: Homo sapiens;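 note: confirmatory dose-response assay in RAS-dependent BJ fibroblasts engineered with TERT, LT and ST, with cytotoxicity read by fluorescence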
# [26] = Shn3 3'UTR reporter inhibitors, dose response, cell-based, Clone20 osteoblasts, firefly luciferase, cherry-picked (AID 624132); assay type: functional;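 note: firefly luciferase luminescence from reporter carrying the Shn3 3'UTR in osteoblasts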
# [27] = control 3'UTR Renilla luciferase suppression, dose response, counter-screen for Shn3 inhibitor project, cell-based, Clone20-Shn3RL, cherry-picked (AID 624133); assay type: functional
# Paired box protein Pax-8 = Paired box protein Pax-8 (Homo sapiens, UniProt Q06710); assay: inhibitors of PAX8-driven TPO luciferase reporter, dose response, RMG-I cells, cherry-pick (AID 687027); assay type: functional, cell-based;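 note: luciferase reporter driven by Pax8 target thyroperoxidase promoter measured by SteadyGlo luminescence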
# Sequence of Paired box protein Pax-8 (Q06710 whole entry): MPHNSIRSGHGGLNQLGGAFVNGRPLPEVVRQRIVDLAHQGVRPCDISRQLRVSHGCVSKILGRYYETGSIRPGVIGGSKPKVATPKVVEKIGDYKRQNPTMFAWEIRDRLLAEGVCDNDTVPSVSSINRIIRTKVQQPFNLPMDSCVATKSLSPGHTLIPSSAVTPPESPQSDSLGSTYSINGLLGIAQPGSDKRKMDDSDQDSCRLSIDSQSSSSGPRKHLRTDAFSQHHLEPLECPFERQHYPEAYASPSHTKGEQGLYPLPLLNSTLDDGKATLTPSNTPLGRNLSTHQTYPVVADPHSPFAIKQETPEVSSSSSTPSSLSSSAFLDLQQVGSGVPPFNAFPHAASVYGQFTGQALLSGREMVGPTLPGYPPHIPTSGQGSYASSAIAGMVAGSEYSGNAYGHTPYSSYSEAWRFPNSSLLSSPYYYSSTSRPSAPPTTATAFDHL
# [28] = PAX2 cell-based inhibition, dose response, selectivity assay for PAX8 inhibitor project, plate reader, dry powder samples (AID 743048); assay type: functional;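 note: HEK293 cells carrying a WT1 promoter luciferase reporter driven by expressed Pax2; potency is for inhibition of Pax2 driven reporter signal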
# [29] = cytotoxicity in COV362 ovarian cancer cells, dose response, cytotoxicity control for PAX8 inhibitor project, cell-based, plate reader, dry powder, SA12 (AID 743144); assay type: functional
# [30] = IOSE-T80 ovarian epithelial cell cytotoxicity, dose response, cytotoxicity control for PAX8 inhibitor project, plate reader, dry powder samples (AID 743045); assay type: functional, cell-based
# [31] = A2780 ovarian cancer cell cytotoxicity, dose response, cytotoxicity control, plate reader, dry powder samples (AID 743046); assay type: functional, cell-based
# [32] = NIH:OVCAR-3 ovarian cancer cell cytotoxicity, dose response, PAX8 inhibitor project, plate reader, dry powder samples (AID 743044); assay type: functional, cell-based
# [33] = PAX5 activity inhibitors, dose response, selectivity assay for PAX8 inhibitor project, cell-based, plate reader, dry powder samples (AID 743047); assay type: functional;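 note: HEK293 cells carrying a Pax5 driven CD19 promoter luciferase reporter; potency of inhibitors that lower reporter luminescence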
# [34] = IGROV1 ovarian cancer cell cytotoxicity, dose response, PAX8 inhibitor project, plate reader, dry powder samples (AID 743043); assay type: functional, cell-based; conditions: IGROV-1
# [35] = cytotoxicity in OVCAR4 cells, dose response, cytotoxicity control for PAX8 inhibitor project, cell-based, plate reader, dry powder, SA11 (AID 743150); assay type: functional; conditions: OVCAR-4
# [36] = cytotoxicity in COV434 cells, dose response, cytotoxicity control for PAX8 inhibitor project, cell-based, plate reader, dry powder, SA7 (AID 743145); assay type: functional
# [37] = cytotoxicity in OV-90 ovarian cancer cells, dose response, PAX8 inhibitor project, cell-based, plate reader, dry powder, SA8 (AID 743149); assay type: functional
# [38] = cytotoxicity dependent on PAX8, dose response, cell-based, plate reader, dry powder (AID 743049); assay type: functional
# [39] = target: Potassium channel subfamily K member 3 (Homo sapiens, UniProt O14649); assay: TASK1 (KCNK3) potassium channel inhibitors, SAR follow-up, CHO cells, FluxOR thallium flux (AID 652212); assay type: functional
# Sequence of Potassium channel subfamily K member 3 (O14649 whole entry): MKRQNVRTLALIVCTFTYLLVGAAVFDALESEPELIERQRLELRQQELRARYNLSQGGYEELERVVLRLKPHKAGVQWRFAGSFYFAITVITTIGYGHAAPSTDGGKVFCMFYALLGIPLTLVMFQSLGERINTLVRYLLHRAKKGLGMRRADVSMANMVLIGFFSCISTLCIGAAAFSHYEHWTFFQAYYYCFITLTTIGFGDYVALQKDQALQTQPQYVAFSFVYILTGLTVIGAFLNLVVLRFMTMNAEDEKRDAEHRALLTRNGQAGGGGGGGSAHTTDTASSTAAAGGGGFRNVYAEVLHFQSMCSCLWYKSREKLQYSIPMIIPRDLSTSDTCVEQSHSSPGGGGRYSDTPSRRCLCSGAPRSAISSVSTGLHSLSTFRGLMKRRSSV
# [40] = inhibitors of PGC1a acetylation in cells, dose response, cell-based, cherry-picked samples (AID 720514); assay type: functional;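 note: potency may reflect raised or lowered acetylation signal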
# fMet-Leu-Phe receptor = fMet-Leu-Phe receptor (Homo sapiens, UniProt P21462); assay: FPR ligands, dose response (AID 519); assay type: functional
# Sequence of fMet-Leu-Phe receptor (P21462 whole entry): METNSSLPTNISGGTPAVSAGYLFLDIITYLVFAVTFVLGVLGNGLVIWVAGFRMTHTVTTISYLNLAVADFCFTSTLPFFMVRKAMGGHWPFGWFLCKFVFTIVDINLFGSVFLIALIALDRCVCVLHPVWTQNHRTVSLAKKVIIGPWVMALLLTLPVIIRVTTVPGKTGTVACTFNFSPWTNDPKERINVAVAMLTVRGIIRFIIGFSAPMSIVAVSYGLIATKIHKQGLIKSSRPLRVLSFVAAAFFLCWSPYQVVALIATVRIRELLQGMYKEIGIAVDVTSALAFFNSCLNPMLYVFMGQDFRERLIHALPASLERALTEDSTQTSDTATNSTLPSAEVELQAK
# [41] = target: 1-phosphatidylinositol 4,5-bisphosphate phosphodiesterase gamma-1 (Homo sapiens, UniProt P19174); assay: Counterscreen for inhibitors of phospholipase C isozymes (PLC-B3): Fluorescence-based biochemical high throughput dose response assay to identify inhibitors of phospholipase C isozymes (PLC-gamma1).
# Sequence of 1-phosphatidylinositol 4,5-bisphosphate phosphodiesterase gamma-1 (P19174 whole entry): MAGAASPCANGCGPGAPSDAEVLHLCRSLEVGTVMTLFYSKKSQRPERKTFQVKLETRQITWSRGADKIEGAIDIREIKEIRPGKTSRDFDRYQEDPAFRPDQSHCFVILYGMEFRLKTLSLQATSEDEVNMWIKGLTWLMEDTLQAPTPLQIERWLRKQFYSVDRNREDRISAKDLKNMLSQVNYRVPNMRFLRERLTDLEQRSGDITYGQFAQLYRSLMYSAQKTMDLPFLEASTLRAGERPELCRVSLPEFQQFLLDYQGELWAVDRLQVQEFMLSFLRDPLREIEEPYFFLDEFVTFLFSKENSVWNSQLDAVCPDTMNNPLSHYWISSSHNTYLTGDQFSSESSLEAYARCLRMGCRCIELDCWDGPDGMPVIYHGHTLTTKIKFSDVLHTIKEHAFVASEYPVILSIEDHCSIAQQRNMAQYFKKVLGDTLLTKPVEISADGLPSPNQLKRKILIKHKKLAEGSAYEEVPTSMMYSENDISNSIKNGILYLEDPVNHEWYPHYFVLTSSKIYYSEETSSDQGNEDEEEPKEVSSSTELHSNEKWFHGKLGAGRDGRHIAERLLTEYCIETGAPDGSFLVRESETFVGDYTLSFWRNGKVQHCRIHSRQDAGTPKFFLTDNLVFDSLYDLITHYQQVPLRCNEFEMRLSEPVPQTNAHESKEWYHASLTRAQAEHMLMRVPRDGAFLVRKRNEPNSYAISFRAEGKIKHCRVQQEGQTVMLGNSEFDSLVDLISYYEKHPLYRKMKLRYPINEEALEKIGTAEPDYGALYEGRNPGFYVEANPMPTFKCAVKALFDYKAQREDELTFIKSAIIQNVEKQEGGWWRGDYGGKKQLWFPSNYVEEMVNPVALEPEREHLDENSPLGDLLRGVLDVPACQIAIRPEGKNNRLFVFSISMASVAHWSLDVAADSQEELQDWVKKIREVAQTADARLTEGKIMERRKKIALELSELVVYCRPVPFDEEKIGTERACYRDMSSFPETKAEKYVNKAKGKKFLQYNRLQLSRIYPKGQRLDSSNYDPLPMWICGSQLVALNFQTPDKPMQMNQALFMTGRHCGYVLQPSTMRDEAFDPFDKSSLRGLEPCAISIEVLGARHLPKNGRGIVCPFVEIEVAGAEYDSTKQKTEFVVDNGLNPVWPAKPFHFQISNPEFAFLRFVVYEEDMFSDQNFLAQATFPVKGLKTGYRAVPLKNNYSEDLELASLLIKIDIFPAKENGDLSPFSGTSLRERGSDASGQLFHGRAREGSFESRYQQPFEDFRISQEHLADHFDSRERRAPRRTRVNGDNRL
# [42] = target: 1-phosphatidylinositol 4,5-bisphosphate phosphodiesterase beta-3 (Homo sapiens, UniProt Q01970); assay: Fluorescence-based biochemical high throughput dose response assay to identify inhibitors of phospholipase C isozymes (PLC-B3).
# Sequence of 1-phosphatidylinositol 4,5-bisphosphate phosphodiesterase beta-3 (Q01970 whole entry): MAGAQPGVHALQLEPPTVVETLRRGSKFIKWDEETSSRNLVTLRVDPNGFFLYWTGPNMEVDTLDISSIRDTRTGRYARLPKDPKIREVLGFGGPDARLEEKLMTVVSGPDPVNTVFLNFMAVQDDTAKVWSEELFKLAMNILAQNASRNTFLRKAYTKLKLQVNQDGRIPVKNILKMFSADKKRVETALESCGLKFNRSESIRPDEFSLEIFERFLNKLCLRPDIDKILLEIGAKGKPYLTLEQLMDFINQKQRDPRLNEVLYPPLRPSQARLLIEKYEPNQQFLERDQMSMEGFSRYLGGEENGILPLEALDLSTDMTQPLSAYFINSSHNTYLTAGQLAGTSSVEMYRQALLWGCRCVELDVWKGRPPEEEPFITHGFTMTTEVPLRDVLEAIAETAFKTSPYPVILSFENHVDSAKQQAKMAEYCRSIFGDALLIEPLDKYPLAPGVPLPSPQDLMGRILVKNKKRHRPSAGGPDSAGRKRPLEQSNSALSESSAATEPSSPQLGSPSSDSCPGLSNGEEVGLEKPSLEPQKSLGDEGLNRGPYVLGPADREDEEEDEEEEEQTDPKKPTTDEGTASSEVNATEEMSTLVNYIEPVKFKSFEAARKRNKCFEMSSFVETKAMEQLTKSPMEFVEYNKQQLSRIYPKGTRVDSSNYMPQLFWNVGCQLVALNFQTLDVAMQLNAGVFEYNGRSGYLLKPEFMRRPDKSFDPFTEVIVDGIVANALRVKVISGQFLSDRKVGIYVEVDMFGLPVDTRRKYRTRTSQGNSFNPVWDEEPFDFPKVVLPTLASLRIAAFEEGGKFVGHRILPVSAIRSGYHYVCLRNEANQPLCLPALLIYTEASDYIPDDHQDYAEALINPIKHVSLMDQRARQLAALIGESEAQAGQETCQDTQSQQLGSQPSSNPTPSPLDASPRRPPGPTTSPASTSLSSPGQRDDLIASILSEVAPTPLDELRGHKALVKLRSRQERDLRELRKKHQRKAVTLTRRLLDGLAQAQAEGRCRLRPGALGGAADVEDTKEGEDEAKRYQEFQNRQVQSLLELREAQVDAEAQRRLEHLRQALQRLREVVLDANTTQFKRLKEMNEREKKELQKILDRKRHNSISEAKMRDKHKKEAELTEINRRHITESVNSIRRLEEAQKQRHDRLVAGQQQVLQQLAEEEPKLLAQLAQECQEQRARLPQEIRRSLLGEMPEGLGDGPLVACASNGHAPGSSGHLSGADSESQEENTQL
# [43] = Late stage assay provider results from the probe development effort to identify inhibitors of the Plasmodium falciparum M18 Aspartyl Aminopeptidase (M18AAP): radiolabel-based cell-based dose response assay to identify compounds that inhibit P. falciparum growth in RBCs, Set 2..; assay type: functional
compound,measurement,setting,value
COc1ccc(-c2noc(CCC(=O)N3CCC(c4cc(C)ccc4C)CC3)n2)cc1,IC50,[1],> 67.5 µM (inactive)
same,EC50,[2],> 67.5 µM (inactive)
CC(C)(C)OC(=O)NCCOCCOCCOc1ccc(N(C(=O)CCl)C(C(=O)NCCc2ccccc2)c2cccs2)cc1Cl (stereo unspecified),AC50,[3],0.492 µM (active)
same,AC50,[4],0.126 µM (active)
same,AC50,[5],1.79 µM (active)
same,AC50,[6],0.156 µM (active)
same,AC50,[7],0.675 µM (active)
same,AC50,[8],0.738 µM (active)
same,AC50,[9],21.4 µM (active)
same,AC50,[10],0.643 µM (active)
same,AC50,[11],21.2 µM (active)
same,AC50,[12],1.45 µM (active)
same,AC50,[13],0.177 µM (active)
COc1cccc(CN2CC(C(=O)NCCc3cn4cccnc4n3)CCC2=O)c1 (stereo unspecified),EC50,Kallikrein-7,23.9 µM (inactive)
Cc1cccc(NC(=O)c2sc3nc4c(c(-c5cccs5)c3c2N)CN(C)CC4)c1,IC50,[14],> 20 µM (inactive)
COc1ccc(S(=O)(=O)Nc2ccc3c(c2)CC(=O)N([C@H](C)CO)C[C@H](C)[C@H](CN(C)Cc2ccc(C(=O)Nc4ccccc4N)cc2)O3)cc1,AC50,[15],3.19 µM (active)
same,AC50,[16],24.6 µM (active)
same,AC50,[17],23.6 µM (active)
same,AC50,[18],29.7 µM (active)
COc1ccc(C)cc1NS(=O)(=O)c1ccc(-c2cnc(C3CC3)o2)cc1,EC50,BJ [19],0.208 µM (active)
same,EC50,[20],0.43 µM (active)
same,EC50,BJ [21],0.99 µM (active)
same,EC50,BJ [22],11.1 µM (inconclusive)
same,EC50,[23],0.388 µM (active)
same,IC50,[24],> 80 µM (inactive)
same,EC50,BJ [25],< 0.104 µM (active)
same,AC50,[26],3.76 µM (active)
same,AC50,[27],6.58 µM (active)
same,AC50,Paired box protein Pax-8,0.734 µM (active)
same,AC50,[28],8.91 µM (active)
same,AC50,[29],0.118 µM (active)
same,AC50,[30],0.217 µM (active)
same,AC50,[31],3.45 µM (active)
same,AC50,[32],1.77 µM (active)
same,AC50,[33],1.83 µM (active)
same,AC50,[34],1.49 µM (active)
same,AC50,[35],0.199 µM (active)
same,AC50,[36],0.337 µM (active)
same,AC50,[37],0.612 µM (active)
same,AC50,[38],5.69 µM (active)
CCOc1ccccc1NC(=O)c1cccc(NC(=O)C2CCOC2)c1 (stereo unspecified),IC50,[39],1.33 µM (active)
Cc1nc2ccccc2c(=O)n1NC(=O)c1ccc(Cl)c([N+](=O)[O-])c1,AC50,[40],16.8 µM (active)
CCOc1ccc(C(=O)C2=C(O)C(=O)N(CC3CCCO3)C2c2ccco2)cc1 (stereo unspecified),Ki,fMet-Leu-Phe receptor,32 µM (inactive)
CCCCn1c(=O)n(CC(=O)Nc2ccc(OC)c(Cl)c2)c(=O)c2c1nc(CO)n2CCC,IC50,[41],> 123 µM (inactive)
same,IC50,[42],> 123 µM (inactive)
COc1ccc(CCNc2c3ccccc3nc3ccccc23)cc1,IC50,[43],1.1 µM (active)

# — ChEMBL document CHEMBL1201862, “PubChem BioAssay data set” (2004)
